Test [1] relates to mixed lymphocyte culture reaction (spleen cells of C57BL/6 and BALB/C mice). The test can be described thus: Mixed lymphocyte culture reaction (MLR). In kind it is cell-based, mouse (C57BL/6 stimulator, BALB/C responder). As to conditions: Mus musculus, Lymphocyte, 42 hours, read-out: MLR activating rate (%); for activity at 1 µg/mL: 1 × 10^0 μg/ml; for activity at 0.1 µg/mL: 1 × 10^-1 μg/ml. How it is done: ii) Mixed lymphocyte culture reaction (MLR) of the compounds of the present invention
Spleen cells were prepared from C57BL/6 mice and treated with 50 μg/ml of mitomycin C for 30 minutes. The treated cells were used as stimulator cells, and the spleen cells of BALB/C mice as responder cells. 2×10^6 cells/ml of the both spleen cells were suspended in 10% FCS RPMI1640 as a culture medium. The above-described cells (50 μl/well) and a sample (10 μl/well) were added into wells of a round-bottomed 96 well plate, and cultured under the condition of 5% CO2 at 37° C. for 42 hours. 0.5 μCi/well of ^3 H-thymidine (^3 H-TdR) was added. After 8 hours, the cells were harvested, and the amount of uptaken ^3 H-TdR was measured by a liquid scintillation counter to calculate the ratio (%) of the uptake of ^3 H-TdR in the sample group to that in the vehicle group as the MLR activating rate.

For another test, the system named is mouse bone marrow cells. Put plainly: In vitro mouse bone marrow cell-proliferation-promoting effect (3H-TdR uptake). The conditions noted are these: Mus musculus, Bone marrow cell, 96 h, 4 days, read-out: Uptake of 3H-TdR (% of control), bone marrow cells; for activity at 0.1 µg/mL: 10^-1 μg/ml; for activity at 0.01 µg/mL: 10^-2 μg/ml. In kind it is cell-based, mouse (BDF1 female). How it is done:
In vitro mouse bone marrow cell-proliferation-promoting effect of the present compound
Experiment was performed with BDF1 female mice (6 weeks old) purchased from NIPPON SLC K.K. Bone marrow cells were removed from the femoral bone of mice by the conventional manner, floated on 10% FCS RPMI 1640, layered over Lympholite M, and centrifuged to give a monocyte fraction. 1×10^6 cells/ml of the monocyte fraction was suspended in 10% FCS RPMI 1640. The cell suspension (100 μl/well) and a vehicle or sample (10 μl/well) which was prepared so as to have a final level shown in Table 2 were added into a wells of round-bottomed 96 well plate, and cultured under the condition of 5% CO2 at 37° C. for 4 days. 0.5 μCi/well of ^3 H-thymidine (^3 H-TdR) was added. After 6 hours, the cells were harvested, and the amount of ^3 H-TdR uptaken into nucleus was measured by a liquid scintillation counter. The ratio of the uptake of ^3 H-TdR in the sample group to that in the vehicle group was calculated and used as the activation rate for promoting in vitro mouse bone marrow cell growth.

In test [2] the test system is P388 mouse leukemia cells. The test can be described thus: Life-span-prolonging (anti-tumor) effect on mice subcutaneously inoculated with P388 mouse leukemia cells. It is filed as in vivo, mouse (CDF1 female). The conditions noted are these: 0.1 mg/kg i.v. on days 1, 5 and 9; for Survival days ave. ± s. d.: all marked ** (p < 0.01); for response vs control in vivo at 0.1 mg/kg: Mus musculus, P388, iv, survival vs vehicle, read-out: T/C (%). The procedure:
i) Anti-tumor effect of the compound of the present invention on mice subcutaneously inoculated with P388 mouse leukemia cells.
Experiment was performed with CDF1 female mice (6 weeks) purchased from NIPPON SLC K.K., which were divided into groups consisting of 5 animals. […]. In this connection, lentinan and picibanil were administered intravenously on days 1, 3, 5, 7 and 9 after implantation, and sizofilan was administered subcutaneously on days 1 through 9. Statistical analysis was performed according to the Mann-Whiteney test.

The subject of another test is mouse splenic lymphocyte. The test can be described thus: In vitro mouse splenic lymphocyte-proliferation-stimulating effect (3H-TdR uptake). It is filed as cell-based, mouse (BDF1 female). The conditions noted are these: Mus musculus, Splenic lymphocyte, 48 h, 2 days, read-out: Uptake of 3H-TdR (% of control), splenic lymphocytes; for activity at 1 µg/mL: 10^0 μg/ml; for activity at 0.001 µg/mL: 10^-3 μg/ml; for activity at 0.01 µg/mL: 10^-2 μg/ml; for activity at 0.1 µg/mL: 10^-1 μg/ml. The procedure:
i) In vitro mouse splenic lymphocyte growth promoting effects of the present compounds
Experiment was performed with BDF1 female mice (6 weeks old) purchased from NIPPON SLC K.K. Spleens were removed from mice, and spleen cells were brayed with slide glasses and hemolized with NH4 Cl. 2×10^6cells/ml of the spleen cells which had been hemolized were suspended in 10% FCS RPMI 1640. The cell suspension (100 μl/well) and a vehicle or sample (10 μl/well) which was prepared so as to have a final level shown in Table 3 were added into wells of a round-bottomed 96 well plate, and cultured under the condition of 5% CO2 at 37° C. for 2 days. 0.5 μCi/well of ^3 H-thymidine (^3 H-TdR) was added. After 6 hours, the cells were harvested, and the amount of ^3 H-TdR uptaken into nucleus was measured by a liquid scintillation counter. The ratio (%) of the uptake of ^3 H-TdR in the sample group to that in the vehicle group was calculated and used as the in vitro mouse splenic lymphocyte-proliferation-stimulating rate.

Structures are written as SMILES.

In the case of `CCCCCCCCCCCCCCCCCCCCCC[C@@H](O)C(=O)N[C@@H](CO[C@H]1O[C@H](CO)[C@H](O)[C@H](O[C@@H]2O[C@@H]([C@H](O)CO)[C@H](O)[C@H]2O)[C@H]1O)[C@H](O)[C@H](O)CCCCCCCCCCCC(C)C` [Compound 15, O-β-D-galactofuranosyl-(1→3)-O-α-D-galactopyranosyl-(1→1)-(2S,3S,4R)-2-amino-N-[(R)-2-hydroxytetracosanoyl]-16-methyl-1,3,4-heptadecanetriol], in test [1], the activity at 1 µg/mL worked out at 295% and the activity at 0.1 µg/mL was found to be 253%. Also, in the test with mouse bone marrow cells, the activity at 0.1 µg/mL worked out at 501% and the activity at 0.01 µg/mL worked out at 291%. In test [2], the “Survival days ave. ± s. d.” value is 14.0 ± 0 days and the response vs control in vivo at 0.1 mg/kg was determined as 109%. Also, in the test with mouse splenic lymphocyte, the activity at 1 µg/mL stood at 845% and the activity at 0.001 µg/mL came out at 394%.

In the case of `CCCCCCCCCCCCCCCCCCCCC[C@@H](O)C(=O)N[C@@H](CO[C@H]1O[C@H](CO)[C@H](O)[C@H](O[C@@H]2O[C@@H]([C@H](O)CO)[C@H](O)[C@H]2O)[C@H]1O)[C@H](O)[C@H](O)CCCCCCCCCCCC` [Compound 11, O-β-D-galactofuranosyl-(1→3)-O-α-D-galactopyranosyl-(1→1)-(2S,3S,4R)-2-amino-N-[(R)-2-hydroxytricosanoyl]-1,3,4-hexadecanetriol], in test [1], the activity at 1 µg/mL was 225% and the activity at 0.1 µg/mL worked out at 258%. Moreover, in the test on mouse bone marrow cells, the activity at 0.1 µg/mL is 410% and the activity at 0.01 µg/mL stood at 281%. Further, in test [2], the “Survival days ave. ± s. d.” value is 13.4 ± 0.5 days and the response vs control in vivo at 0.1 mg/kg amounted to 105%. In the test with mouse splenic lymphocyte, the activity at 1 µg/mL was 646%, the activity at 0.01 µg/mL was 858% and the activity at 0.001 µg/mL stood at 116%.

For `CCCCCCCCCCCCCCCCCCCCCC[C@@H](O)C(=O)N[C@@H](CO[C@H]1O[C@H](CO)[C@H](O)[C@H](O[C@@H]2O[C@@H]([C@H](O)CO)[C@H](O)[C@H]2O)[C@H]1O)[C@H](O)[C@H](O)CCCCCCCCCCC(C)C` [Compound 13, O-β-D-galactofuranosyl-(1→3)-O-α-D-galactopyranosyl-(1→1)-(2S,3S,4R)-2-amino-N-[(R)-2-hydroxytetracosanoyl]-15-methyl-1,3,4-hexadecanetriol], in test [1], the activity at 1 µg/mL was 276% and the activity at 0.1 µg/mL is 248%. In addition, in the test on mouse bone marrow cells, the activity at 0.1 µg/mL turned out to be 546% and the activity at 0.01 µg/mL was 395%. Moreover, in test [2], the “Survival days ave. ± s. d.” value worked out at 14.6 ± 0.5 days and the response vs control in vivo at 0.1 mg/kg was 114%. Further, in the test with mouse splenic lymphocyte, the activity at 1 µg/mL was determined as 788% and the activity at 0.001 µg/mL amounted to 227%.

As for `CCCCCCCCCCCCCCCCCCCCCC[C@@H](O)C(=O)N[C@@H](CO[C@H]1O[C@H](CO)[C@H](O)[C@H](O[C@@H]2O[C@@H]([C@H](O)CO)[C@H](O)[C@H]2O)[C@H]1O)[C@H](O)[C@H](O)CCCCCCCCCCCC` [Compound 12, O-β-D-galactofuranosyl-(1→3)-O-α-D-galactopyranosyl-(1→1)-(2S,3S,4R)-2-amino-N-[(R)-2-hydroxytetracosanoyl]-1,3,4-hexadecanetriol], in test [1], the activity at 1 µg/mL was determined as 203% and the activity at 0.1 µg/mL came to 187%. Besides, in the test with mouse bone marrow cells, the activity at 0.1 µg/mL stood at 381% and the activity at 0.01 µg/mL stood at 378%. In addition, in test [2], the “Survival days ave. ± s. d.” value came out at 13.8 ± 0.8 days and the response vs control in vivo at 0.1 mg/kg amounted to 108%. Further, in the test on mouse splenic lymphocyte, the activity at 1 µg/mL is 509%, the activity at 0.1 µg/mL turned out to be 982%, the activity at 0.01 µg/mL was 772% and the activity at 0.001 µg/mL came to 113%.

Take `CCCCCCCCCCCCCCCCCCCC[C@@H](O)C(=O)N[C@@H](CO[C@H]1O[C@H](CO)[C@H](O)[C@H](O[C@@H]2O[C@@H]([C@H](O)CO)[C@H](O)[C@H]2O)[C@H]1O)[C@H](O)[C@H](O)CCCCCCCCCCCC` [Compound 10, O-β-D-galactofuranosyl-(1→3)-O-α-D-galactopyranosyl-(1→1)-(2S,3S,4R)-2-amino-N-[(R)-2-hydroxydocosanoyl]-1,3,4-hexadecanetriol]: in test [1], the activity at 1 µg/mL was 174% and the activity at 0.1 µg/mL worked out at 132%. In addition, in the test with mouse bone marrow cells, the activity at 0.1 µg/mL was 286% and the activity at 0.01 µg/mL is 147%. In addition, in test [2], the “Survival days ave. ± s. d.” value is 13.8 ± 0.4 days and the response vs control in vivo at 0.1 mg/kg stood at 108%. In the test with mouse splenic lymphocyte, the activity at 1 µg/mL is 509%, the activity at 0.1 µg/mL amounted to 375%, the activity at 0.01 µg/mL stood at 277% and the activity at 0.001 µg/mL came to 102%.

As to `CCCCCCCCCCCCCCCCCCCCCC[C@@H](O)C(=O)N[C@@H](CO[C@H]1O[C@H](CO)[C@H](O)[C@H](O[C@@H]2O[C@@H]([C@H](O)CO)[C@H](O)[C@H]2O)[C@H]1O)[C@H](O)[C@H](O)CCCCCCCCCCCCC(C)C` [Compound 17, O-β-D-galactofuranosyl-(1→3)-O-α-D-galactopyranosyl-(1→1)-(2S,3S,4R)-2-amino-N-[(R)-2-hydroxytetracosanoyl]-17-methyl-1,3,4-octadecanetriol], in test [1], the activity at 1 µg/mL worked out at 283% and the activity at 0.1 µg/mL was 242%. Besides, the activity at 0.1 µg/mL in the test with mouse bone marrow cells was determined as 592%. In test [2], the “Survival days ave. ± s. d.” value is 14.8 ± 0.8 days and the response vs control in vivo at 0.1 mg/kg was 116%. For the same compound, in the test with mouse splenic lymphocyte, the activity at 1 µg/mL stood at 781% and the activity at 0.001 µg/mL is 767%.

As for `CCCCCCCCCCCCCCCCCCCCCC[C@@H](O)C(=O)N[C@@H](CO[C@H]1O[C@H](CO)[C@H](O)[C@H](O[C@@H]2O[C@@H]([C@H](O)CO)[C@H](O)[C@H]2O)[C@H]1O)[C@H](O)[C@H](O)CCCCCCCCCCCCCC` [Compound 16, O-β-D-galactofuranosyl-(1→3)-O-α-D-galactopyranosyl-(1→1)-(2S,3S,4R)-2-amino-N-[(R)-2-hydroxytetracosanoyl]-1,3,4-octadecanetriol], in test [1], the activity at 1 µg/mL came out at 274% and the activity at 0.1 µg/mL came to 262%. Also, in the test with mouse bone marrow cells, the activity at 0.1 µg/mL was determined as 325% and the activity at 0.01 µg/mL was determined as 296%. Moreover, in test [2], the “Survival days ave. ± s. d.” value was 14.8 ± 0.8 days and the response vs control in vivo at 0.1 mg/kg came to 116%. Moreover, in the test with mouse splenic lymphocyte, the activity at 1 µg/mL amounted to 740% and the activity at 0.001 µg/mL came out at 702%.

The values above are taken from patent US5780441A, “Sphingoglycolipid compounds and therapeutic uses thereof” (Kirin Beer Kabushiki Kaisha, priority 1993, dated 1998).
